This data set concerns GENE-TOX genotoxicity assays, various organisms and cells. In words: GENE-TOX mutagenicity studies. Conditions: for call: Assay Type: In vivo carcinogenicity studies, Assay Code: CCG+.
Setting [1] is: Species/Cell Type: Salmonella typhimurium (one or more of the five standard strains: TA98, TA100, TA1535, TA1537, and TA1538), Assay Type: Histidine reverse gene mutation, Ames assay, Assay Code: SALT, Evaluation Type: Evaluation A (Pre-1980).
The mark [2] stands for this setting: Species/Cell Type: Nonhuman, Assay Type: Sister-chromatid exchange (SCE) in vitro, Assay Code: SC2T, Evaluation Type: Evaluation B (Post-1980).
Setting [3] is: Species/Cell Type: Chinese hamster ovary (CHO) cells, Assay Type: Forward gene mutation at the HPRT locus, Assay Code: CHO+, Evaluation Type: Evaluation B (Post-1980).
Setting [4] is: Species/Cell Type: Escherichia coli polA (W3119 vs P3478), Assay Type: Rec-assay, DNA effects (bacterial DNA repair), Assay Code: RE1+, Evaluation Type: Evaluation A (Pre-1980).
The mark [5] stands for this setting: Species/Cell Type: Drosophila melanogaster, Assay Type: Sex-linked recessive lethal gene mutation, Assay Code: SRLT, Evaluation Type: Evaluation A (Pre-1980).
Where [6] appears, read: Species/Cell Type: Nonhuman, Evaluation Type: Evaluation A (Pre-1980).
[7] abbreviates: Species/Cell Type: Salmonella typhimurium (one or more of the five standard strains: TA98, TA100, TA1535, TA1537, and TA1538), Assay Type: Histidine reverse gene mutation, Ames assay, Assay Code: SAL+*, Activation: With metabolic activation, Evaluation Type: Evaluation A (Pre-1980).
Setting [8] is: Species/Cell Type: Nonhuman, Assay Type: Sister-chromatid exchange (SCE) in vitro, Assay Code: SC2+D, Dose Response: With dose response, Evaluation Type: Evaluation B (Post-1980).
Where [9] appears, read: Species/Cell Type: Salmonella typhimurium (one or more of the five standard strains: TA98, TA100, TA1535, TA1537, and TA1538), Assay Type: Histidine reverse gene mutation, Ames assay, Assay Code: SAL+, Evaluation Type: Evaluation A (Pre-1980).
[10] abbreviates: Species/Cell Type: Drosophila melanogaster, Assay Type: Sex-linked recessive lethal gene mutation, Assay Code: SRL+, Evaluation Type: Evaluation A (Pre-1980).

The structures appear in SMILES notation. Activity calls are given as the source filed them. No rule for the calls is given here.

Take `CC(=O)CCCCn1c(=O)c2c(ncn2C)n(C)c1=O`: where the note is “Species/Cell Type: Human, Sex: Male, Assay Type: Sperm morphology, Assay Code: SPHT, Evaluation Type: Evaluation A (Pre-1980)”, the mutagenic call is “no conclusion”.

`c1nnc(NCNc2nncs2)s1`: the mutagenic call (Species/Cell Type: Mammalian polychromatic erythrocytes, Assay Type: Micronucleus test, chromosome aberrations, Assay Code: MNT+U, Dose Response: Unconfirmed positive response, Evaluation Type: Evaluation B (Post-1980)) is “active; positive”.

In the case of `NC(=O)N(CC(=O)O)N=O`, the mutagenic call under setting [1] was “no conclusion”.

On to `CN(N=O)C(=O)NC(N)=O`, for which, where the note is “Species/Cell Type: Arabidopsis species, Assay Type: Gene mutation, Assay Code: ARM+D, Dose Response: With dose response, Evaluation Type: Evaluation A (Pre-1980)”, the mutagenic call is “active; positive”.

Regarding `c1cc2c3c(cccc3c1)CC2`, the mutagenic call (Species/Cell Type: Drosophila melanogaster, Assay Type: Aneuploidy, sex chromosome gain, chromosome aberrations, Assay Code: DAGT, Evaluation Type: Evaluation A (Pre-1980)) is reported as “no conclusion”.

In the case of `O=C(O)c1c(Cl)c(Cl)c(Cl)c(Cl)c1-c1c2cc(I)c(=O)c(I)c-2oc2c(I)c(O)c(I)cc12`, the mutagenic call was “no conclusion” (Species/Cell Type: Bacillus subtilis (H17 vs M45), Assay Type: Rec-assay, spot test, DNA effects (bacterial DNA repair), Assay Code: REWT, Evaluation Type: Evaluation A (Pre-1980)); “no conclusion” (Species/Cell Type: Bacillus subtilis (H17 vs M45T), Assay Type: Rec-assay, spot test, DNA effects (bacterial DNA repair), Assay Code: REXT, Evaluation Type: Evaluation A (Pre-1980)); “no conclusion” (Species/Cell Type: Human, Assay Type: Sister-chromatid exchange (SCE) in vitro, Assay Code: SC1T, Evaluation Type: Evaluation B (Post-1980)); “no conclusion” under setting [2]; “inactive; negative” (Species/Cell Type: Saccharomyces cerevisiae, Assay Type: Mitotic recombination or gene conversion, Assay Code: YEC-, Evaluation Type: Evaluation A (Pre-1980)).

For the molecule `[Cl][Fe]([Cl])[Cl]`, the mutagenic call (Species/Cell Type: Bacillus subtilis (H17 vs M45), Assay Type: Rec-assay, spot test, DNA effects (bacterial DNA repair), Assay Code: REW-, Evaluation Type: Evaluation A (Pre-1980)) was “inactive; negative”.

Take `Clc1ccc(Br)cc1`: the mutagenic call (Species/Cell Type: Saccharomyces cerevisiae, Assay Type: Mitotic recombination or gene conversion, Assay Code: YEH-, Evaluation Type: Evaluation A (Pre-1980)) was “inactive; negative”; the mutagenic call (Species/Cell Type: Salmonella typhimurium (one or more of the five standard strains: TA98, TA100, TA1535, TA1537, and TA1538), Assay Type: Histidine reverse gene mutation, Ames assay, Assay Code: SAL-, Evaluation Type: Evaluation A (Pre-1980)) is “inactive; negative”.

With `ClCCBr`, the mutagenic call reads like this: under setting [3], “active; positive”; under setting [4], “active; positive”.

For the molecule `Nc1ncnc2n[nH]nc12`, the mutagenic call (Species/Cell Type: Vicia faba, Assay Type: Chromosome aberrations, Assay Code: VIC+, Evaluation Type: Evaluation A (Pre-1980)) is “active; positive”.

On to `Cc1c2ccccc2cc2c1ccc1ccccc12`, for which the mutagenic call runs as follows: (Species/Cell Type: Chinese hamster lung (V79) cells, Assay Type: Forward gene mutation at the HPRT or ouabain locus, Assay Code: V79+*, Activation: With metabolic activation, Evaluation Type: Evaluation A (Pre-1980)) “active; positive”; under setting [5], “no conclusion”; (Species/Cell Type: Mouse prostate cells, Assay Type: Cell transformation, Assay Code: CTM+D, Dose Response: With dose response, Evaluation Type: Evaluation A (Pre-1980)) “active; positive”; (Species/Cell Type: Nonhuman, Assay Type: Sister-chromatid exchange (SCE) in vitro, Assay Code: SC2+D, Dose Response: With dose response, Evaluation Type: Evaluation A (Pre-1980)) “active; positive”; under setting [7], “active; positive”; (Species/Cell Type: Syrian hamster embryo (SHE) cells, Assay Type: Cell transformation, clonal assay, Assay Code: CTC+, Evaluation Type: Evaluation A (Pre-1980)) “active; positive”. For the same molecule, the call under setting [6] is “active; positive”.

For the molecule `C[C@@]1(CO)[C@H](O)CC[C@@]2(C)[C@H]1CC[C@H]1C[C@@H]3C[C@@]12CC[C@]3(O)CO`, the mutagenic call was “active; positive” (Species/Cell Type: Human lymphocytes, Assay Type: Sister-chromatid exchange (SCE) in vitro, Assay Code: SCL+, Evaluation Type: Evaluation B (Post-1980)); “active; positive” (Species/Cell Type: Human, Assay Type: Sister-chromatid exchange (SCE) in vitro, Assay Code: SC1+, Evaluation Type: Evaluation B (Post-1980)); “active; positive” under setting [8].

As for `ClCC(Br)CBr` (stereo not given), the mutagenic call under setting [4] was “active; positive”; the mutagenic call (Species/Cell Type: Human, Sex: Male, Assay Type: Sperm morphology, Assay Code: SPH+, Evaluation Type: Evaluation A (Pre-1980)) was “active; positive”; the mutagenic call under setting [8] is “active; positive”; the mutagenic call under setting [9] was “active; positive”; the mutagenic call (Species/Cell Type: Salmonella typhimurium, Assay Type: Forward and reverse gene mutation, body fluid assay, Assay Code: BFU-, Evaluation Type: Evaluation A (Pre-1980)) was “inactive; negative”. In addition, the call under setting [6] is “active; positive”.

With `O=C1C(N2CC2)=C(N2CC2)C(=O)C(N2CC2)=C1N1CC1`, the mutagenic call is, setting by setting: (Species/Cell Type: Drosophila melanogaster, Assay Type: Aneuploidy, partial sex chromosome loss, chromosome aberrations, Assay Code: DAPT, Evaluation Type: Evaluation A (Pre-1980)) “no conclusion”; (Species/Cell Type: Drosophila melanogaster, Assay Type: Aneuploidy, whole sex chromosome loss, chromosome aberrations, Assay Code: DAC+M, Evaluation Type: Evaluation A (Pre-1980)) “active; positive”; under setting [10], “active; positive”; (Species/Cell Type: Neurospora crassa, Assay Type: Forward gene mutation, Assay Code: NEF+, Evaluation Type: Evaluation A (Pre-1980)) “active; positive”; (Species/Cell Type: Neurospora crassa, Assay Type: Reverse gene mutation, Assay Code: NER+, Evaluation Type: Evaluation A (Pre-1980)) “active; positive”.

Consider `CCCCCCCCO`, for which the mutagenic call under setting [2] is recorded as “no conclusion”.

`CCOC(=O)c1ccc(N=NN(C)C)cc1`: the mutagenic call is “active; positive” under setting [10] and “active; positive” (Species/Cell Type: Saccharomyces cerevisiae, Assay Type: Mitotic recombination or gene conversion, Assay Code: YEC+, Evaluation Type: Evaluation A (Pre-1980)).

For the molecule `O=C1OC2(c3ccccc31)c1ccc(O)c(Br)c1Oc1c2ccc(O)c1Br`, under setting [1], the mutagenic call is “no conclusion”.

For the molecule `ClCCCl`, the mutagenic call runs as follows: under setting [3], “active; positive”; (Species/Cell Type: Drosophila melanogaster, Assay Type: Aneuploidy, sex chromosome gain, chromosome aberrations, Assay Code: DAG+F, Evaluation Type: Evaluation A (Pre-1980)) “active; positive”; (Species/Cell Type: Drosophila melanogaster, Assay Type: Aneuploidy, whole sex chromosome loss, chromosome aberrations, Assay Code: DAC+F, Evaluation Type: Evaluation A (Pre-1980)) “active; positive”; under setting [10], “active; positive”; under setting [4], “active; positive”; under setting [7], “active; positive”. The mutagenic call by setting is: (Species/Cell Type: Salmonella typhimurium, Assay Type: Forward and reverse gene mutation, body fluid assay, Assay Code: BFU+, Evaluation Type: Evaluation A (Pre-1980)) “active; positive”; (Species/Cell Type: Syrian hamster embryo (SA7/SHE) cells, Assay Type: Cell transformation, viral enhanced, Assay Code: CT7+, Evaluation Type: Evaluation A (Pre-1980)) “active; positive”. The call under setting [6] is “active; positive”.

With `CCN(N=O)C(C)(C)C`, the mutagenic call under setting [5] is on record as “no conclusion”.

On to `[N-]=[N+]=CC(=O)NCC(=O)NN`, for which the mutagenic call under setting [9] was “active; positive”.

Take `OCC(O)CCl` (stereo not given): the mutagenic call was “no conclusion” (Species/Cell Type: Rat, Sex: Male, Assay Type: Sperm morphology, Assay Code: SPAT, Evaluation Type: Evaluation A (Pre-1980)) and “inactive; negative” (Species/Cell Type: Rodents, Sex: Male, Assay Type: Dominant lethal test, Assay Code: DLT-, Evaluation Type: Evaluation A (Pre-1980)).

As to `CC(=O)OCCCCCCBr`, the mutagenic call (Species/Cell Type: Mammalian polychromatic erythrocytes, Assay Type: Micronucleus test, chromosome aberrations, Assay Code: MNTT, Evaluation Type: Evaluation B (Post-1980)) is reported as “no conclusion”.

For the origin of these results see PubChem BioAssay AID1259408 (Genetic Toxicology Data Bank (GENE-TOX), 2018).
